What is called Kd is the free concentration of one partner at which half of the binding sites on the other are occupied at equilibrium, for simple one-to-one binding.

Our source for the Kd values is ChEMBL document CHEMBL4321812, “Structure-based rational design of staurosporine-based fluorescent probe with broad-ranging kinase affinity for kinase panel application” (Bioorg Med Chem Lett, 2019).

For test [1], the target named is Protein kinase C delta type (Homo sapiens, UniProt Q05655). As to the kind of experiment: Binding affinity to recombinant human full length N-terminal GST-tagged PRKCD expressed in baculovirus expression system using PKC peptide as substrate incubated for 1 hr by TR-FRET assay. In general terms: TR-FRET usually uses a lanthanide donor and a delayed reading to cut background.

In test [2] the target is cAMP-dependent protein kinase catalytic subunit alpha (Homo sapiens, UniProt P17612). As to the kind of experiment: Binding affinity to recombinant human full length N-terminal GST-tagged PRKACA expressed in baculovirus expression system using kemptide as substrate incubated for 1 hr by TR-FRET assay.
Another test deals with Aurora kinase A (Homo sapiens, UniProt O14965). The experiment in a line: Binding affinity to recombinant full-length N-terminal His-FLAG-GST-tagged AURKA (unknown origin) expressed in baculovirus infected Sf9 insect cells incubated for 1 hr by TR-FRET assay.
Test [3] deals with Serine/threonine-protein kinase TAO3 (Homo sapiens, UniProt Q9H2K8). As to the kind of experiment: Binding affinity to recombinant human full length N-terminal GST-tagged TAOK3 expressed in baculovirus expression system using PKC-epsilon peptide as substrate incubated for 1 hr by TR-FRET assay.
Test [4] addresses RAC-gamma serine/threonine-protein kinase (Homo sapiens, UniProt Q9Y243). The experiment in a line: Binding affinity to recombinant full-length N-terminal His-FLAG-GST-tagged AKT3 (unknown origin) (108 to 479 residues) expressed in baculovirus infected Sf9 insect cells incubated for 1 hr by TR-FRET assay.
Test [5] has as its target Serine/threonine-protein kinase ULK2 (Homo sapiens, UniProt Q8IYT8). The experiment in a line: Binding affinity to recombinant N-terminal His-FLAG-GST-tagged ULK2 (unknown origin) (1 to 478 residues) expressed in baculovirus infected Sf9 insect cells incubated for 1 hr by TR-FRET assay.
Test [6] deals with cGMP-dependent protein kinase 1 (Homo sapiens, UniProt Q13976). As to the kind of experiment: Binding affinity to recombinant full-length N-terminal His-FLAG-tagged PRKG1 (unknown origin) expressed in baculovirus infected Sf9 insect cells incubated for 1 hr by TR-FRET assay.
Test [7] deals with Serine/threonine-protein kinase 17A (Homo sapiens, UniProt Q9UEE5). The experiment in a line: Binding affinity to recombinant full length N-terminal His-FLAG-GST-tagged STK17A (unknown origin) expressed in baculovirus infected Sf9 insect cells incubated for 1 hr by TR-FRET assay.
The target of the next test is CDK9/cyclin T1 (Homo sapiens, UniProt P50750). The experiment in a line: Binding affinity to recombinant human full length N-terminal GST-tagged CDK9 co-expressed with full length N-terminal His-tagged CyclinT1 expressed in baculovirus expression system using CDK9 substrate incubated for 1 hr by TR-FRET assay.
Test [8] addresses Hepatocyte growth factor receptor (Homo sapiens, UniProt P08581). The experiment in a line: Binding affinity to recombinant full-length N-terminal His-FLAG-GST-tagged MET (unknown origin) (956 to 1390 residues) expressed in baculovirus infected Sf9 insect cells incubated for 1 hr by TR-FRET assay.
Test [9] addresses Serine/threonine-protein kinase 4 (Homo sapiens, UniProt Q13043). As to the kind of experiment: Binding affinity to recombinant full-length N-terminal His-FLAG-GST-tagged STK4 (unknown origin) expressed in baculovirus infected Sf9 insect cells incubated for 1 hr by TR-FRET assay.
Test [10] has as its target Calcium/calmodulin-dependent protein kinase type II subunit gamma (Homo sapiens, UniProt Q13555). As to the kind of experiment: Binding affinity to recombinant full-length N-terminal His-FLAG-GST-tagged CAMK2G (unknown origin) expressed in baculovirus infected Sf9 insect cells incubated for 1 hr in presence of calmodulin by TR-FRET assay.
Test [11] concerns the target Epithelial discoidin domain-containing receptor 1 (Homo sapiens, UniProt Q08345). The experiment in a line: Binding affinity to recombinant N-terminal His-FLAG-GST-tagged DDR1 (unknown origin) (444 to 876 residues) expressed in baculovirus infected Sf9 insect cells incubated for 1 hr by TR-FRET assay.
For test [12], the target named is Mitogen-activated protein kinase kinase kinase 11 (Homo sapiens, UniProt Q16584). As to the kind of experiment: Binding affinity to recombinant N-terminal His-FLAG-GST-tagged MAP3K11 (unknown origin) (99 to 398 residues) expressed in baculovirus infected Sf9 insect cells incubated for 1 hr by TR-FRET assay.
In test [13] the target is Serine/threonine-protein kinase PAK 5 (Homo sapiens, UniProt Q9P286). As to the kind of experiment: Binding affinity to recombinant N-terminal His-FLAG-GST-tagged PAK7 (unknown origin) (425 to 719 residues) expressed in baculovirus infected Sf9 insect cells incubated for 1 hr by TR-FRET assay.
For test [14], the target named is Protein kinase C theta type (Homo sapiens, UniProt Q04759). The experiment in a line: Binding affinity to recombinant full-length N-terminal His-GST-tagged PRKCQ (unknown origin) expressed in baculovirus infected Sf9 insect cells incubated for 1 hr by TR-FRET assay.
For test [15], the target named is Mitogen-activated protein kinase kinase kinase kinase 5 (Homo sapiens, UniProt Q9Y4K4). As to the kind of experiment: Binding affinity to recombinant full-length N-terminal His-FLAG-GST-tagged MAP4K5 (unknown origin) expressed in baculovirus infected Sf9 insect cells incubated for 1 hr by TR-FRET assay.
Test [16] concerns the target Proto-oncogene tyrosine-protein kinase receptor Ret (Homo sapiens, UniProt P07949). The experiment in a line: Binding affinity to recombinant N-terminal His-FLAG-GST-tagged RET (unknown origin) (658 to 1114 residues) expressed in baculovirus infected Sf9 insect cells incubated for 1 hr by TR-FRET assay.
The target in test [17] is Dual specificity tyrosine-phosphorylation-regulated kinase 1A (Homo sapiens, UniProt Q13627). As to the kind of experiment: Binding affinity to recombinant full-length N-terminal His-FLAG-GST-tagged DYRK1A (unknown origin) expressed in baculovirus infected Sf9 insect cells incubated for 1 hr by TR-FRET assay.
Test [18] deals with Serine/threonine-protein kinase N2 (Homo sapiens, UniProt Q16513). As to the kind of experiment: Binding affinity to recombinant full-length N-terminal His-FLAG-GST-tagged PKN2 (unknown origin) expressed in baculovirus infected Sf9 insect cells incubated for 1 hr by TR-FRET assay.
In test [19] the target is Serine/threonine-protein kinase 32B (Homo sapiens, UniProt Q9NY57). As to the kind of experiment: Binding affinity to recombinant full-length N-terminal His-FLAG-GST-tagged STK32B (unknown origin) expressed in baculovirus infected Sf9 insect cells incubated for 1 hr by TR-FRET assay.
Test [20] concerns the target AMP-activated protein kinase (AMPK) alpha-1/beta-1/gamma-1 (Homo sapiens, UniProt P54619+Q13131+Q9Y478). The experiment in a line: Binding affinity to recombinant human full-length GST N-Terminal tagged-AMPK alpha1/N-Terminal GST tagged-AMPK beta1/N-Terminal his-tagged AMPK gamma1 expressed in baculovirus expression system incubated for 1 hr by TR-FRET assay.
In test [21] the target is Serine/threonine-protein kinase Chk2 (Homo sapiens, UniProt O96017). As to the kind of experiment: Binding affinity to recombinant full-length N-terminal His-FLAG-GST-tagged CHEK2 (unknown origin) expressed in baculovirus infected Sf9 insect cells incubated for 1 hr by TR-FRET assay.
Test [22] addresses Fibroblast growth factor receptor 1 (Homo sapiens, UniProt P11362). As to the kind of experiment: Binding affinity to recombinant N-terminal His-FLAG-GST-tagged FGFR1 (unknown origin) (396 to 820 residues) expressed in baculovirus infected Sf9 insect cells incubated for 1 hr by TR-FRET assay.

Chain of Serine/threonine-protein kinase 4 (Q13043 whole entry): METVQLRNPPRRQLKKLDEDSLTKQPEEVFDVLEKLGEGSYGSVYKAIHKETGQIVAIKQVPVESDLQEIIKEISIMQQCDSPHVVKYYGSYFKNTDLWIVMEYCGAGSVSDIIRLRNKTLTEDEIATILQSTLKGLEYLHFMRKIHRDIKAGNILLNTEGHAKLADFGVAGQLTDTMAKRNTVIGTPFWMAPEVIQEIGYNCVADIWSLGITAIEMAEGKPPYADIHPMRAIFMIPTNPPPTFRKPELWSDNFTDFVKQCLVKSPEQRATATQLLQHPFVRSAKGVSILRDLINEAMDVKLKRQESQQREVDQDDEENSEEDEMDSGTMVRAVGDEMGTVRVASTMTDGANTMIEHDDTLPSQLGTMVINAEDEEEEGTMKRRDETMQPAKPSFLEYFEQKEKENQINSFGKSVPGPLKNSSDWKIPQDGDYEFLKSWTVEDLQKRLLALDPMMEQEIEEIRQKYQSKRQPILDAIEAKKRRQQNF
Chain of Protein kinase C delta type (Q05655 whole entry): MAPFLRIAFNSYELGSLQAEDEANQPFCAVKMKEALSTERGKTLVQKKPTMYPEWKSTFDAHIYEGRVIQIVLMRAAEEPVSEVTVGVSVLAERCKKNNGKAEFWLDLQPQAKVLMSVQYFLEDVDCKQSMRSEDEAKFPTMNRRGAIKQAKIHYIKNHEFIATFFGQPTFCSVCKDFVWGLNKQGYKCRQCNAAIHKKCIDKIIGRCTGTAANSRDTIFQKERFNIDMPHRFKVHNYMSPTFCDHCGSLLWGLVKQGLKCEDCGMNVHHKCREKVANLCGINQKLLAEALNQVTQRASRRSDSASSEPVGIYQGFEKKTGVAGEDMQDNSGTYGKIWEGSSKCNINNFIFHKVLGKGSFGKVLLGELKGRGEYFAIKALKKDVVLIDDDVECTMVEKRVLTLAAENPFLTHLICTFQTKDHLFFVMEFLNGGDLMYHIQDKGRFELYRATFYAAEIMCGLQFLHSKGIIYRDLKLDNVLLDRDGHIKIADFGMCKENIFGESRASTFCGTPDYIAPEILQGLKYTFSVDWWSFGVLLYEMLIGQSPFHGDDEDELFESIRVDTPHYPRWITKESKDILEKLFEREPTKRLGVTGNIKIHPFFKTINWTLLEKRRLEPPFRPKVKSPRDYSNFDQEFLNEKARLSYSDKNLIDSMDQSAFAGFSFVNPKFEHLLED
Chain of Calcium/calmodulin-dependent protein kinase type II subunit gamma (Q13555 whole entry, the tested form may be a part): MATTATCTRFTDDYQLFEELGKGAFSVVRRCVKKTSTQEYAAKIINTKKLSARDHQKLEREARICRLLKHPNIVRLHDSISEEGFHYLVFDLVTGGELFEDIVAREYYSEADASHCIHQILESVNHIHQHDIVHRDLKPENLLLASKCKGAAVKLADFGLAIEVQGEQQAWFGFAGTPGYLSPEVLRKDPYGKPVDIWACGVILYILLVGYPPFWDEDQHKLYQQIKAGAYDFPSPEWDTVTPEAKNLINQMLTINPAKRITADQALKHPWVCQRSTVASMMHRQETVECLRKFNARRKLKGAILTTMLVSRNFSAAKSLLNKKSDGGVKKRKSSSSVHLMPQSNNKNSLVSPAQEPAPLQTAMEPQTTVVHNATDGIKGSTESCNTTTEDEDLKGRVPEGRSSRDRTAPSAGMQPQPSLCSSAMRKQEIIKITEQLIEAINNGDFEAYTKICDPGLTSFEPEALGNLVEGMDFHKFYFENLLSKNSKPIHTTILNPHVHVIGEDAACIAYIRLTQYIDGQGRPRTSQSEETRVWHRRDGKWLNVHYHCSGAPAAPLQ
Chain of Mitogen-activated protein kinase kinase kinase 11 (Q16584 whole entry, the tested form may be a part): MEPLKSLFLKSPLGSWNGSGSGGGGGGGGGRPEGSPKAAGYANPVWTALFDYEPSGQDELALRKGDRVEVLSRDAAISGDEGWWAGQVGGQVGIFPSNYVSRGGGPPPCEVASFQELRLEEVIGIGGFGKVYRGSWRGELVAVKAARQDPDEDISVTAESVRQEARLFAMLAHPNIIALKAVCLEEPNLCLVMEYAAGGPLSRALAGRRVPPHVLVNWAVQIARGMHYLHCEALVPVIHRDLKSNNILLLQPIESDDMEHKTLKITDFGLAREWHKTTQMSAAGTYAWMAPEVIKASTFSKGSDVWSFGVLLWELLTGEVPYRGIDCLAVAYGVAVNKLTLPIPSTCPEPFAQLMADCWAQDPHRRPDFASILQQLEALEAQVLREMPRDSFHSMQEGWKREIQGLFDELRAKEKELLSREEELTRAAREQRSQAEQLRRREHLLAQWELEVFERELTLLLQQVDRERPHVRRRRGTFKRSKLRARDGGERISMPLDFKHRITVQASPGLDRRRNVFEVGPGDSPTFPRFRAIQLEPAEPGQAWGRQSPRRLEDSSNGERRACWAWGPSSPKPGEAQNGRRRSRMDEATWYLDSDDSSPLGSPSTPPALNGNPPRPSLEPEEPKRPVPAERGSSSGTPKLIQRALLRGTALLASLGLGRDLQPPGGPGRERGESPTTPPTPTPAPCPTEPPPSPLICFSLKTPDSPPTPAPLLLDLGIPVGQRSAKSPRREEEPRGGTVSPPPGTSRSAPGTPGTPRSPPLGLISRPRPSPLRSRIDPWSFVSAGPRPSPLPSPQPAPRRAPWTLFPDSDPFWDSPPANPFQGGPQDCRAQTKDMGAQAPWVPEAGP
Chain of Hepatocyte growth factor receptor (P08581 whole entry, the tested form may be a part): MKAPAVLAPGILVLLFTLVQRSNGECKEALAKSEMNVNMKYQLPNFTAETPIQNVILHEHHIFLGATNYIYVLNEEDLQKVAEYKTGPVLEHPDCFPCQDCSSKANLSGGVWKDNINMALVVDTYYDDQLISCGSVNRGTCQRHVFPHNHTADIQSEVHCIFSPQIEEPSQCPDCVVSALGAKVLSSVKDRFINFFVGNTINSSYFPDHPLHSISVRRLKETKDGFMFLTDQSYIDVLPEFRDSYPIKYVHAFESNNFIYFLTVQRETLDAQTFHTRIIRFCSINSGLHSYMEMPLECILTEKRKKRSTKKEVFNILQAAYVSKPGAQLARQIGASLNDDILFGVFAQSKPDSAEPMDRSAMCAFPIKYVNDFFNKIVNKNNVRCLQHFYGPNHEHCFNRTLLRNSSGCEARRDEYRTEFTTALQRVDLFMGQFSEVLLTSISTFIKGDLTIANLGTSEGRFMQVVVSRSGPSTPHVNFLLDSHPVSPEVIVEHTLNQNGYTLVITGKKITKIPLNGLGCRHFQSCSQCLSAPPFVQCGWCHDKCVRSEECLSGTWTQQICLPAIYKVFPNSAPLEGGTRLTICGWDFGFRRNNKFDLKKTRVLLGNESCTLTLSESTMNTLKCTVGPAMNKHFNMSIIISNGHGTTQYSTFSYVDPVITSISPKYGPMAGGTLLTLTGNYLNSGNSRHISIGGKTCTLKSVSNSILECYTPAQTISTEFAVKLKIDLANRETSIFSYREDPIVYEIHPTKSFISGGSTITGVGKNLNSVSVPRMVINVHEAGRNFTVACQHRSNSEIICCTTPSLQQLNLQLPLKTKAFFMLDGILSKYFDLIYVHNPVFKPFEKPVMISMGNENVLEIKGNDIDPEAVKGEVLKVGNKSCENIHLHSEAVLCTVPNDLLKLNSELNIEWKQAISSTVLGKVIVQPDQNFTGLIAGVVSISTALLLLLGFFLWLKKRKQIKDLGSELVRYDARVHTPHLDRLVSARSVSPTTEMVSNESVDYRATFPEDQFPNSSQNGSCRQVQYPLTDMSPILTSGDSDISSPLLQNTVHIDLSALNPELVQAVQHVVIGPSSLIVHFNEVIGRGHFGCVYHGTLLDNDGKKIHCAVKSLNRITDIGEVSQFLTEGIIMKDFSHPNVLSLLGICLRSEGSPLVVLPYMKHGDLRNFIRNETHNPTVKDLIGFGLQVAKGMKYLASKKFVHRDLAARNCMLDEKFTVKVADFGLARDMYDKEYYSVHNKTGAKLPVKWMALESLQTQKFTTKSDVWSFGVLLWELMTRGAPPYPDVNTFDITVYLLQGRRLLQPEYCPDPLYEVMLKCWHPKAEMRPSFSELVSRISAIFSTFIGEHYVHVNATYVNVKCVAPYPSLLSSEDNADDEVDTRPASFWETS
Chain of Serine/threonine-protein kinase PAK 5 (Q9P286 whole entry, the tested form may be a part): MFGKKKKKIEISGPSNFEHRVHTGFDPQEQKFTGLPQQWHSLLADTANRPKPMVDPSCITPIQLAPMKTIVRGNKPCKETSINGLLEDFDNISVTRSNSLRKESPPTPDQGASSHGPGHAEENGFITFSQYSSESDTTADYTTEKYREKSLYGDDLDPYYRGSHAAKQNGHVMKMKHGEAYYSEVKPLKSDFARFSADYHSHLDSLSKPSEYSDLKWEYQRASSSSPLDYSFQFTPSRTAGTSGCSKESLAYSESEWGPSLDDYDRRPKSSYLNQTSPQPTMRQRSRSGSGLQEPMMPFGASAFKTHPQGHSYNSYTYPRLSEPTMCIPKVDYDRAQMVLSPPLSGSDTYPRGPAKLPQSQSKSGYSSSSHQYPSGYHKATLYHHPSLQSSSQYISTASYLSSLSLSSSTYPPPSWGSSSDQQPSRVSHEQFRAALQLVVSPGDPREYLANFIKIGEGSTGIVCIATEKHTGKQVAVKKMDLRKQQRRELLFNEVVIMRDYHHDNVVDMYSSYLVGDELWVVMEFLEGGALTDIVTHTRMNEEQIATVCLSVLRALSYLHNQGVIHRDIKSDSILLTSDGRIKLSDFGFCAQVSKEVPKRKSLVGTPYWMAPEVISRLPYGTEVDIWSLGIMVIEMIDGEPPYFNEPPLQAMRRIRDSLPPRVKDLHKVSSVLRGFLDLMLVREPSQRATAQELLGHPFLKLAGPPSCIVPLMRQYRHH

Regarding `CO[C@@H]1[C@H](NCCOCCOCCOCCNC(=O)CCC2=[N+]3C(=Cc4c(C)cc(C)n4[B-]3(F)F)C=C2)C[C@H]2O[C@]1(C)n1c3ccccc3c3c4c(c5c6ccccc6n2c5c31)C(=O)NC4`, the dissociation constant Kd in [1] was determined as 0.013 µM; in test [2], 0.116 µM; on Aurora kinase A it was 0.045 µM; in test [3], 0.36 µM; in test [4], 0.749 µM; in test [5] it was 0.03 µM. Further, the Kd in test [6] was found to be 0.109 µM; in [7] it was 0.258 µM; at CDK9/cyclin T1, 0.162 µM; in test [8] it was 0.93 µM; in test [9], 0.007 µM; in [10], 0.008 µM. Further, the Kd in test [11] amounted to 0.674 µM; in test [12] it was 0.003 µM; in test [13], 0.04 µM; in test [14], 0.028 µM; in test [15], 0.087 µM; in [16] it was 0.04 µM. The Kd in [17] was found to be 0.138 µM; in test [18] it was 0.006 µM; in test [19] it was 0.446 µM; in [20], 0.013 µM; in test [21] it was 0.147 µM; in test [22], 0.268 µM.

Take `CO[C@@H]1[C@H](N(C)CCOCCOCCOCCNC(=O)CCC2=[N+]3C(=Cc4c(C)cc(C)n4[B-]3(F)F)C=C2)C[C@H]2O[C@]1(C)n1c3ccccc3c3c4c(c5c6ccccc6n2c5c31)C(=O)NC4`: the Kd in test [1] was determined as 0.003 µM; in test [2] it was 0.042 µM; at Aurora kinase A, 0.051 µM; in [3] it was 0.293 µM; in test [4], 0.537 µM; in test [5], 0.061 µM. The Kd in [6] was found to be 0.085 µM; in test [7] it was 0.367 µM; on CDK9/cyclin T1, 0.116 µM; in [8], 0.812 µM; in [9] it was 0.004 µM; in [10] it was 0.009 µM. Further, the Kd came out at 0.888 µM in [11]; 0.004 µM in test [12]; 0.053 µM in [13]; 0.019 µM in test [14]; 0.377 µM in test [15]; 0.054 µM in test [16]. The Kd stood at 0.102 µM in [17]; 0.004 µM in test [18]; 0.984 µM in test [19]; 0.015 µM in test [20]; 0.643 µM in [22].
